Active and inactive are the calls of the source. The calls are words filed in the database; no cut-off is given here.
Columns and labels:
[1] = test system: MDA-MB-231; assay: Antiproliferative activity against human MDA-MB-231 cells assessed as inhibition of cell growth incubated for 36 hrs by SRB assay; format: functional, cell-based; conditions: for IC50: MDA-MB-231, 36 h
[2] = test system: HCC1806; assay: Antiproliferative activity against human HCC1806 cells assessed as inhibition of cell growth incubated for 36 hrs by SRB assay; format: functional, cell-based; conditions: for IC50: HCC1806, 36 h

SMILES	IC50 [1] [µM]	IC50 [2] [µM]	Activity [1]	Activity [2]
C[C@@H]1C[C@]2(OC(O)[C@@]3(C)O[C@@H]23)O[C@H]2C[C@@]3(C)[C@@H]4CC[C@H]5C(C)(C)[C@@H](O[C@@H]6OC[C@@H](O)[C@H](O)[C@H]6O)CC[C@@]56C[C@@]46CC(=O)[C@]3(C)[C@@H]12 (some centres not stated)	> 20	> 20		
CC(=O)O[C@@H]1C[C@@]23C[C@@]24CC[C@H](O[C@@H]2OC[C@@H](O)[C@H](O)[C@H]2O)C(C)(C)[C@@H]4CC[C@H]3[C@]2(C)C[C@@H]3O[C@]4(C[C@@H](C)[C@@H]3[C@@]12C)OC(=O)[C@@]1(C)O[C@@H]41	> 20	> 20		
CC(=O)O[C@@H]1[C@@H](OC(C)=O)[C@H](O[C@H]2CC[C@]34C[C@]35C[C@@H](OC(C)=O)[C@]3(C)[C@H]6[C@H](C)C[C@]7(O[C@H](OC(=O)/C=C/c8ccc(OC(F)(F)F)cc8)[C@@]8(C)O[C@@H]78)O[C@H]6C[C@@]3(C)[C@@H]5CC[C@H]4C2(C)C)OC[C@H]1OC(C)=O	> 20	> 20		
CC(=O)O[C@@H]1[C@@H](OC(C)=O)[C@H](O[C@H]2CC[C@]34C[C@]35CC(=O)[C@]3(C)[C@H]6[C@H](C)C[C@]7(OC(OC(=O)c8ccccc8F)[C@@]8(C)O[C@@H]78)O[C@H]6C[C@@]3(C)[C@@H]5CC[C@H]4C2(C)C)OC[C@H]1OC(C)=O (some centres not stated)			inactive	inactive
CC(=O)O[C@@H]1[C@@H](OC(C)=O)[C@H](O[C@H]2CC[C@]34C[C@]35CC(=O)[C@]3(C)[C@H]6[C@H](C)C[C@]7(OC(=O)[C@@]8(C)O[C@@H]78)O[C@H]6C[C@@]3(C)[C@@H]5CC[C@H]4C2(C)C)OC[C@H]1OC(C)=O			inactive	inactive
CC(=O)O[C@@H]1[C@@H](OC(C)=O)[C@H](O[C@H]2CC[C@]34C[C@]35C[C@@H](OC(C)=O)[C@]3(C)[C@H]6[C@H](C)C[C@]7(O[C@H](OC(=O)c8ccc([N+](=O)[O-])cc8)[C@@]8(C)O[C@@H]78)O[C@H]6C[C@@]3(C)[C@@H]5CC[C@H]4C2(C)C)OC[C@H]1OC(C)=O	> 20	> 20		

The next lines start with results.

IC50 [1] [µM]	IC50 [2] [µM]	SMILES	Activity [1]	Activity [2]
> 20	> 20	C[C@@H]1C[C@]2(OC(=O)[C@@]3(C)O[C@@H]23)O[C@H]2C[C@@]3(C)[C@@H]4CC[C@H]5C(C)(C)[C@@H](O[C@@H]6OC[C@@H](O)[C@H](O)[C@H]6O)CC[C@@]56C[C@@]46C[C@H](F)[C@]3(C)[C@@H]12		
> 20	> 20	CC(=O)O[C@@H]1[C@@H](OC(C)=O)[C@H](O[C@H]2CC[C@]34C[C@]35C[C@@H](OC(C)=O)[C@]3(C)[C@H]6[C@H](C)C[C@]7(O[C@H](OC(=O)c8ccccc8F)[C@@]8(C)O[C@@H]78)O[C@H]6C[C@@]3(C)[C@@H]5CC[C@H]4C2(C)C)OC[C@H]1OC(C)=O		
> 20	> 20	CC(=O)O[C@H]1O[C@]2(C[C@@H](C)[C@H]3[C@H](C[C@@]4(C)[C@@H]5CC[C@H]6C(C)(C)[C@@H](O[C@@H]7OC[C@@H](O)[C@H](O)[C@H]7O)CC[C@@]67C[C@@]57C[C@@H](OC(C)=O)[C@]34C)O2)[C@@H]2O[C@]12C		
> 20	> 20	CO[C@H]1O[C@]2(C[C@@H](C)[C@H]3[C@H](C[C@@]4(C)[C@@H]5CC[C@H]6C(C)(C)[C@@H](O[C@@H]7OC[C@@H](OC(C)=O)[C@H](OC(C)=O)[C@H]7OC(C)=O)CC[C@@]67C[C@@]57C[C@@H](OC(C)=O)[C@]34C)O2)[C@@H]2O[C@]12C		
> 20	> 20	CO[C@@H]1O[C@]2(C[C@@H](C)[C@H]3[C@H](C[C@@]4(C)[C@@H]5CC[C@H]6C(C)(C)[C@@H](O[C@@H]7OC[C@@H](OC(C)=O)[C@H](OC(C)=O)[C@H]7OC(C)=O)CC[C@@]67C[C@@]57C[C@@H](OC(C)=O)[C@]34C)O2)[C@@H]2O[C@]12C		

Reference: ChEMBL document CHEMBL5257109, “Development of actein derivatives as potent anti-triple negative breast cancer agents” (Bioorg Med Chem Lett, 2023)
